Measurements: patent publication US20040023884A1, “Biologically active peptides from functional domains of bactericidal/permeability-increasing protein and uses thereof” (priority 1993, published 2004)
Values after ≈ are worked out from the molar mass of the structure shown. Square brackets hold non-standard residues; d marks the D form. Ends that are not written are not given here. Peptide text beside a SMILES is read from it. 1Nal = N[C@@H](Cc1cccc2ccccc12)C(=O)O

What was measured:
[1] = test system: rough mutant E. coli J5 bacteria; assay: Radial diffusion bactericidal assay, E. coli J5; format: cell-based; conditions: radial diffusion; for pmol added to well to achieve a 30 mm^2 bactericidal zone, E. coli J5: PROBIT analysis, E. coli J5 (rough)
Description: BPI proteolytic fragments produced according to Example 1 were screened for bactericidal effects using rough mutant E. coli J5 bacteria in a radial diffusion assay. Specifically, an overnight culture of E. coli J5 was diluted 1:50 into fresh tryptic soy broth and incubated for 3 hours at 37° C. to attain log phase growth of the culture. Bacteria were then pelleted at 3,000 rpm for 5 minutes in a Sorvall RT6000B centrifuge (Sorvall Instruments, Newton, Conn.). 5 mL of 10 mM sodium phosphate buffer (pH 7.4) was added and the preparation was re-pelleted. […] The bacteria were diluted to 4×10^6 CFU/mL in 10 mL of molten underlayer agarose (at approximately 45° C.) and inverted repeatedly to mix in 15 mL polypropylene tubes conventionally used for this purpose.
The entire contents of such tubes were then poured into a level square petri dish and distributed evenly by rocking the dish side-to-side. […] A series of wells were then punched into the hardened agarose using a sterile 3 mm punch attached to a vacuum apparatus. The punch was sterilized with 100% alcohol and allowed to air dry prior to use to avoid contaminating the bacterial culture.
5 or 10 μL of each of the BPI fragments were carefully pipetted into each well. As a negative control, dilution buffer (pH 8.3) was added to a separate well, and rBPI23 at concentrations of 5 μg/mL and 1 μg/mL were also added as positive controls. Each plate was incubated at 37° C. for 3 hours, and then 10 mL of molten overlayer agarose (at approximately 45° C.) was added into the level petri dish, allowed to harden and incubated overnight at 37° C. […] The bacterial zones were measured with a micrometer.

[2] = test system: E. coli 0111:B4 (smooth) bacteria; assay: Radial diffusion bactericidal assay, E. coli 0111:B4; format: cell-based; conditions: radial diffusion; PROBIT analysis; E. coli O111:B4 (smooth)
Staphylococcus aureus = assay: Radial diffusion bactericidal assay, Staphylococcus aureus; format: cell-based; conditions: radial diffusion; PROBIT analysis; S. aureus
Candida albicans = format: cell-based
[3] = 3H-heparin binding assay (affinity and capacity); conditions: for Heparin Capacity: heparin bound at saturation; for Kd: read-out: Heparin Affinity
Description: Briefly, each fragment was added to wells of a 96-well microtiter plate having a polyvinylidene difluoride membrane (Immunobilon-P, Millipore, Bedford, Mass.) disposed at the bottom of the wells. […] Positive control wells contained varying amounts of rBPI23. […] DuPont-NEN, Wilmington, Del.) were made in the blocking buffer and incubated in the BPI peptide-containing wells for one hour at 4° C. The unbound heparin was aspirated and the wells were washed three times with blocking buffer, dried and removed for quantitation in a liquid scintillation counter (Model 1217, LKB, Gaithersburg, Md.). Although BSA in the blocking buffer did show a low affinity and capacity to bind heparin, this was considered physiologically irrelevant and the background was routinely subtracted from the test compound signal.

Compound	pmol added to well to achieve a 30 mm^2 bactericidal zone, E. coli J5 [1]	pmol added to well to achieve a 30 mm^2 bactericidal zone, E. coli O111:B4 [2]	pmol added to well to achieve a 30 mm^2 bactericidal zone, S. aureus (Staphylococcus aureus)	MIC C. alb (Candida albicans) [µg/mL]	bactericidal activity (in words) ([1]; E. coli J5)	heparin binding capacity (in words) [3]	Heparin Capacity [3]	Kd [3] [nM]	Heparin Affinity [3]
CC(C)C[C@H](NC(=O)[C@H](Cc1ccccc1)NC(=O)[C@H](CCCNC(=N)N)NC(=O)[C@H](Cc1cccc2ccccc12)NC(=O)[C@H](CCC(N)=O)NC(=O)[C@H](C)NC(=O)[C@H](CCCCN)NC(=O)[C@H](Cc1cccc2ccccc12)NC(=O)[C@H](CCCCN)NC(=O)[C@H](CCCCN)NC(=O)[C@H](CC(C)C)NC(=O)[C@H](Cc1ccccc1)NC(=O)[C@H](CCCNC(=N)N)NC(=O)[C@H](Cc1cccc2ccccc12)NC(=O)[C@H](CCC(N)=O)NC(=O)[C@H](C)NC(=O)[C@H](CCCCN)NC(=O)[C@H](Cc1cccc2ccccc12)NC(=O)[C@@H](N)CCCCN)C(=O)N[C@@H](CCCCN)C(N)=O [BPI.160] (H-K[1Nal]KAQ[1Nal]RFLKK[1Nal]KAQ[1Nal]RFLK-NH2; N-terminus and C-terminus assumed)	288.78 pmol	2,967.57 pmol	352,608.37 pmol	>100.00	–	–	–	–	–
CC[C@H](C)[C@H](NC(=O)[C@H](CC(C)C)NC(=O)[C@H](Cc1cccc2ccccc12)NC(=O)CNC(=O)[C@@H](NC(=O)[C@H](CCCCN)NC(=O)[C@H](CO)NC(=O)[C@@H](N)CCCCN)C(C)C)C(=O)N[C@@H](CCC(N)=O)C(=O)N[C@@H](CC(C)C)C(=O)N[C@@H](Cc1ccccc1)C(=O)N[C@@H](Cc1cccc2ccccc12)C(=O)N[C@@H](CCCCN)C(=O)N[C@@H](CCCCN)C(=O)O [BPI.148, KSKVGAβ-(1-naphthyl)LIQLFAβ-(1-naphthyl)KK] (H-KSKVG[1Nal]LIQLF[1Nal]KK-OH; N-terminus and C-terminus assumed)	4,206.57 pmol	b (no detectable activity up to 5 μg/well)	b (no detectable activity up to 5 μg/well)	50.00 (≈ 28 µM)	–	–	–	–	–
CC[C@H](C)[C@H](N)C(=O)N[C@@H](CCCCN)C(=O)N[C@H](C(=O)N[C@@H](CO)C(=O)NCC(=O)N[C@@H](CCCCN)C(=O)N[C@@H](Cc1c[nH]c2ccccc12)C(=O)N[C@@H](CCCCN)C(=O)N[C@@H](C)C(=O)N[C@@H](Cc1cccc2ccccc12)C(=O)N[C@@H](Cc1cccc2ccccc12)C(=O)N[C@@H](CCCNC(=N)N)C(=O)N[C@@H](Cc1ccccc1)C(=O)N[C@@H](CC(C)C)C(=O)N[C@@H](CCCCN)C(=O)N[C@@H](CCCCN)C(=O)N[C@@H](CO)C(=O)N[C@@H](CCCCN)C(=O)N[C@H](C(=O)NCC(=O)N[C@@H](Cc1c[nH]c2ccccc12)C(=O)N[C@@H](CC(C)C)C(=O)N[C@H](C(=O)N[C@@H](CCC(N)=O)C(=O)N[C@@H](CC(C)C)C(=O)N[C@@H](Cc1ccccc1)C(=O)N[C@@H](Cc1c[nH]cn1)C(=O)N[C@@H](CCCCN)C(=O)N[C@@H](CCCCN)C(=O)O)[C@@H](C)CC)C(C)C)[C@@H](C)CC [BPI.158] (H-IKISGKWKA[1Nal][1Nal]RFLKKSKVGWLIQLFHKK-OH; N-terminus and C-terminus assumed)	–	–	–	>100.00	–	–	–	–	–
CC[C@H](C)[C@H](NC(=O)[C@H](CC(C)C)NC(=O)[C@H](Cc1c[nH]c2ccccc12)NC(=O)CNC(=O)[C@@H](NC(=O)[C@H](CCCCN)NC(=O)[C@H](CO)NC(=O)[C@H](CCCCN)NC(=O)[C@H](CCCCN)NC(=O)[C@H](CC(C)C)NC(=O)[C@H](Cc1ccccc1)NC(=O)[C@H](CCCNC(=N)N)NC(=O)[C@H](Cc1cccc2ccccc12)NC(=O)[C@H](CCC(N)=O)NC(=O)[C@H](C)NC(=O)[C@H](CCCCN)NC(=O)[C@H](Cc1cccc2ccccc12)NC(=O)[C@@H](N)CCCCN)C(C)C)C(=O)N[C@@H](CCC(N)=O)C(=O)N[C@@H](CC(C)C)C(=O)N[C@@H](Cc1c[nH]c2ccccc12)C(=O)N[C@@H](Cc1c[nH]cn1)C(=O)N[C@@H](CCCCN)C(=O)N[C@@H](CCCCN)C(N)=O [BPI.159] (H-K[1Nal]KAQ[1Nal]RFLKKSKVGWLIQLWHKK-NH2; N-terminus and C-terminus assumed)	765.43 pmol	152,678.66 pmol	14,387.00 pmol	50.00 (≈ 15.9 µM)	–	–	–	–	–
KWKAQKRF [BPI.167]	25,489.99 pmol	b (no detectable activity up to 5 μg/well)	b (no detectable activity up to 5 μg/well)	>50.00	–	–	–	–	–
CC[C@H](C)[C@H](NC(=O)[C@H](CC(C)C)NC(=O)[C@H](Cc1c[nH]c2ccccc12)NC(=O)CNC(=O)[C@@H](NC(=O)[C@H](CCCCN)NC(=O)[C@H](CO)NC(=O)[C@@H](N)CCCCN)C(C)C)C(=O)N[C@@H](CCC(N)=O)C(=O)N[C@@H](CC(C)C)C(=O)N[C@@H](Cc1ccccc1)C(=O)N[C@@H](Cc1cccc2ccccc12)C(=O)N[C@@H](CCCCN)C(=O)N[C@@H](Cc1cccc2ccccc12)C(=O)O [BPI.146] (H-KSKVGWLIQLF[1Nal]K[1Nal]-OH; N-terminus and C-terminus assumed)	b (no detectable activity up to 5 μg/well)	b (no detectable activity up to 5 μg/well)	b (no detectable activity up to 5 μg/well)	>50.00	–	–	–	–	–
CIKISGKWKAQKRFLK [BPI.58]	1,050.11 pmol	b (no detectable activity up to 5 μg/well)	b (no detectable activity up to 5 μg/well)	–	highly bactericidal	extremely high heparin capacity	231.2 ng	194	–
IKISGKAβ-(1-naphthyl)KAQKRFLK (IKISGK[1Nal]KAQKRFLK) [BPI.67]	2,424.30 pmol	b (no detectable activity up to 5 μg/well)	b (no detectable activity up to 5 μg/well)	–	–	–	250.4 ng	108	–
KSKVKWLIKLFFKFKSKVKWLIKLFFKF [BPI.101]	1,329.30 pmol	3,631.70 pmol	4,388.20 pmol	–	–	–	210.9 ng	1900	–
IKISGKWKAKQRFLK [BPI.56]	1,387.00 pmol	b (no detectable activity up to 5 μg/well)	b (no detectable activity up to 5 μg/well)	–	–	–	135.5 ng	115	–
QQGTAALQKELKRIK [BPI.1]	b (no detectable activity up to 5 μg/well)	b (no detectable activity up to 5 μg/well)	b (no detectable activity up to 5 μg/well)	–	–	–	no binding	–	no binding
CC(C)C[C@H](NC(=O)[C@H](Cc1ccccc1)NC(=O)[C@H](CCCNC(=N)N)NC(=O)[C@H](Cc1cccc2ccccc12)NC(=O)[C@H](Cc1cccc2ccccc12)NC(=O)[C@H](C)NC(=O)[C@H](CCCCN)NC(=O)[C@H](Cc1c[nH]c2ccccc12)NC(=O)[C@H](CCCCN)NC(=O)[C@H](CCCCN)NC(=O)[C@H](CC(C)C)NC(=O)[C@H](Cc1ccccc1)NC(=O)[C@H](CCCNC(=N)N)NC(=O)[C@H](Cc1cccc2ccccc12)NC(=O)[C@H](Cc1cccc2ccccc12)NC(=O)[C@H](C)NC(=O)[C@H](CCCCN)NC(=O)[C@H](Cc1c[nH]c2ccccc12)NC(=O)[C@@H](N)CCCCN)C(=O)N[C@@H](CCCCN)C(=O)O [BPI.156] (H-KWKA[1Nal][1Nal]RFLKKWKA[1Nal][1Nal]RFLK-OH; N-terminus and C-terminus assumed)	–	–	–	>100.00	–	–	–	–	–
IAISGKWKAQKRFLA [BPI.60]	3,782.80 pmol	b (no detectable activity up to 5 μg/well)	b (no detectable activity up to 5 μg/well)	–	–	–	120.3 ng	64.8	–
